# Measurements published in patent US11014941B2, “Pyrrolopyrimidine derivatives useful as inhibitors of influenza virus replication” (priority 2017, dated 2021).
# Biological target: Influenza PB2 (Influenza A virus, UniProt P03428)
# Assay: biochemical
# Format: binding
# Details: read-out: Influenza PB2 affinity, IC50
# Influenza PB2, sequence (P03428 whole entry, looked up): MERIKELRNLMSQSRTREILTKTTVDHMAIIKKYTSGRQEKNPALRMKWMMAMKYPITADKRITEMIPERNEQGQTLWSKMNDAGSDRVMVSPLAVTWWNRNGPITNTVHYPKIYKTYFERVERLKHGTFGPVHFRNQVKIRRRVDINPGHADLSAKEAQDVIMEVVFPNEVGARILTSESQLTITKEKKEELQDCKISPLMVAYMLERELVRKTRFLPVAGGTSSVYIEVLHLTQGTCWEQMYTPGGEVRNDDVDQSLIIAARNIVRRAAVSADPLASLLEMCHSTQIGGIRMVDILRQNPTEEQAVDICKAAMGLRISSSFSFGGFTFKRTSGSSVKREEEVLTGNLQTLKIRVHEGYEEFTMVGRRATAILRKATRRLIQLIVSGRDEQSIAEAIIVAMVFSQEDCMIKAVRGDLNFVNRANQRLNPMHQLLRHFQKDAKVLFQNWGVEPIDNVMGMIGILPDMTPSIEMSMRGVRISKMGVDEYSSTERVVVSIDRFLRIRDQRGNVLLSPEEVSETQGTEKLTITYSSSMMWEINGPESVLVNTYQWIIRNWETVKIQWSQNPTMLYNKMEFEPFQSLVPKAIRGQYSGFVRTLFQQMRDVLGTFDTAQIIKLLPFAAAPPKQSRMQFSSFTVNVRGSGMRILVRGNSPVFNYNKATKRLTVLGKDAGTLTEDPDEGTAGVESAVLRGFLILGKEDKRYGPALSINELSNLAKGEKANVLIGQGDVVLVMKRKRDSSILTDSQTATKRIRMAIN
row,Structure (SMILES),IC50
1,COC(=O)[C@@H]1C2CCC(CC2)[C@H]1n1ccc2ccc(-c3c[nH]c4ncc(Cl)cc34)cc21 [Compound B200],10 to 100 µM
2,COC(=O)CNC(=O)CCn1ccc2c(-c3c[nH]c4ncc(F)cc34)ncnc21 [Compound A16],> 100 µM
3,CC(C)(C)OC(=O)NCCn1cc(-c2c[nH]c3ncc(F)cc23)c2cncnc21 [Compound C13],> 100 µM
4,"O=C(O)[C@@H]1CCCC[C@H]1n1ccc2cnc(-c3c[nH]c4ncc(F)cc34)nc21 (single isomer, unassigned) [Compound B17]",< 1 µM
5,O=C(O)[C@@H]1C2CCC(CC2)[C@H]1n1ccc2ccc(-c3c[nH]c4ncc(Cl)cc34)cc21 [Compound B206],1 to 10 µM
6,CCOC(=O)[C@@H]1C2CCC(CC2)[C@H]1n1cc(CCc2ccccn2)c2cnc(-c3c[nH]c4ncc(F)cc34)nc21 [Compound B184],10 to 100 µM
7,O=C(O)C1=C(N2CCc3cnc(-c4c[nH]c5ncc(F)cc45)nc32)CCCC1 [Compound B53],1 to 10 µM
8,CCOC(=O)[C@@H]1C2CCC(CC2)[C@H]1n1cc(CCCCC#N)c2cnc(-c3c[nH]c4ncc(F)cc34)nc21 [Compound B202],> 100 µM
9,"O=C(O)[C@@H]1CCCC[C@H]1n1ccc2cnc(-c3c[nH]c4ncc(F)cc34)nc21 (single isomer, unassigned) [Compound B24]",< 1 µM
10,CCOC(=O)[C@@H]1C2CCC(CC2)[C@H]1n1cc(F)c2cnc(-c3c[nH]c4ncc(C(F)(F)F)cc34)nc21 [Compound B217],> 100 µM
11,O=C(O)CCn1ccc2cnc(-c3c[nH]c4ncc(F)cc34)nc21 [Compound B5],10 to 100 µM
12,CCOC(=O)[C@@H]1C2CCC(CC2)[C@H]1n1cc(C#CCCC#N)c2cnc(-c3c[nH]c4ncc(F)cc34)nc21 [Compound B203],10 to 100 µM
13,CNC(=O)[C@]1(C)CCCC[C@H]1n1cc(Cl)c2cnc(-c3c[nH]c4ncc(F)cc34)nc21 [Compound B82],10 to 100 µM
14,O=CC1=C(n2cc(F)c3cnc(-c4c[nH]c5ncc(Cl)cc45)nc32)C2CCC1CC2 [Compound B209],1 to 10 µM
15,CCOC(=O)[C@@H]1C2CCC(CC2)[C@H]1n1cc(C#CC2CC2)c2cnc(-c3c[nH]c4ncc(F)cc34)nc21 [Compound B154],10 to 100 µM
16,C[C@H](NC(=O)Cn1ccc2cnc(-c3c[nH]c4ncc(F)cc34)nc21)C(=O)O [Compound B11],10 to 100 µM
17,COC(=O)[C@@H]1CCC[C@H]1n1ccc2cnc(-c3c[nH]c4ncc(F)cc34)nc21 [Compound B19],1 to 10 µM
18,CN(C)C(=O)N[C@H]1CC[C@H](n2ccc3cnc(-c4c[nH]c5ncc(F)cc45)nc32)CC1 [Compound B80],> 100 µM
19,CC(Cn1cc(-c2c[nH]c3ncc(F)cc23)c2cncnc21)C(=O)O (centres unmarked) [Compound C7],10 to 100 µM
20,CNC(=O)N1CCCC(Cn2cc(F)c3cnc(-c4c[nH]c5ncc(F)cc45)nc32)C1 (centres unmarked) [Compound B61],1 to 10 µM
21,COC(=O)[C@H](C)NC(=O)Cn1ccc2cnc(-c3c[nH]c4ncc(F)cc34)nc21 [Compound B7],> 100 µM
22,N#Cc1cn([C@@H]2C3CCC(CC3)[C@H]2C(=O)O)c2nc(-c3c[nH]c4ncc(Cl)cc34)ncc12 [Compound B191],< 1 µM
23,CCOCCOCCOCCN(C)C(=O)[C@@H]1CCCC[C@H]1n1ccc2cnc(-c3c[nH]c4ncc(F)cc34)nc21 [Compound B26],10 to 100 µM
24,CNC(=O)N[C@@H]1CCC[C@@H](n2ccc3cnc(-c4c[nH]c5ncc(F)cc45)nc32)C1 [Compound B65],1 to 10 µM

row,Structure (SMILES),IC50
1,CCCCCOCCOCCN(C)C(=O)N[C@@H]1CCC[C@H](n2ccc3cnc(-c4c[nH]c5ncc(F)cc45)nc32)C1 [Compound B42],> 100 µM
2,O=C(O)[C@@H]1CCCC[C@H]1n1ccc2cnc(-c3c[nH]c4ncc(F)cc34)nc21 (racemic) [Compound B15],1 to 10 µM
3,N#Cc1cnc2[nH]cc(-c3ncc4c(Cl)cn([C@@H]5C6CCC(CC6)[C@H]5C(=O)O)c4n3)c2c1 [Compound B218],> 100 µM
4,O=C(O)[C@@H]1C2CCC(CC2)[C@H]1n1cc(-c2cccc(O)c2)c2cnc(-c3c[nH]c4ncc(F)cc34)nc21 [Compound B145],< 1 µM
5,COC(=O)[C@]1(C)CCCC[C@H]1n1cc(Cl)c2cnc(-c3c[nH]c4ncc(F)cc34)nc21 [Compound B66],10 to 100 µM
6,CNC(=O)N1CCC(Cn2cc(F)c3cnc(-c4c[nH]c5ncc(F)cc45)nc32)CC1 [Compound B62],> 100 µM
7,O=C(O)Cn1ccc2cnc(-c3c[nH]c4ncc(F)cc34)nc21 [Compound B4],10 to 100 µM
8,"O=C(O)[C@@H]1C2CCC(CC2)C1n1cc(Cl)c2cnc(-c3c[nH]c4ncc(Cl)cc34)nc21 (single isomer, unassigned) [Compound B136]",1 to 10 µM
9,CNC(=O)N[C@H]1CC[C@H](n2ccc3cnc(-c4c[nH]c5ncc(F)cc45)nc32)CC1 [Compound B79],> 100 µM
10,CNC(=O)[C@]1(C)CCCC[C@H]1n1cc(F)c2cnc(-c3c[nH]c4ncc(Cl)cc34)nc21 [Compound B92],10 to 100 µM
11,"O=C(O)[C@H]1CCCC1n1ccc2cnc(-c3c[nH]c4ncc(F)cc34)nc21 (single isomer, unassigned) [Compound B21]",1 to 10 µM
12,O=C(O)[C@H]1C2CCC(CC2)[C@@H]1n1cc(-c2cccnc2)c2cnc(-c3c[nH]c4ncc(F)cc34)nc21 [Compound B142],< 1 µM
13,CNC(=O)[C@@H]1CCCCC1n1cc(F)c2cnc(-c3c[nH]c4ncc(Cl)cc34)nc21 (some centres unmarked) [Compound B94],10 to 100 µM
14,CCOCCOCCOCCNC(=O)[C@H]1CCC[C@@H](n2ccc3cnc(-c4c[nH]c5ncc(F)cc45)nc32)C1 [Compound B46],10 to 100 µM
15,O=C(O)[C@@H]1C2CCC(CC2)[C@H]1n1cc(-c2ccccc2O)c2cnc(-c3c[nH]c4ncc(F)cc34)nc21 [Compound B165],1 to 10 µM
16,CN(C)C(=O)Cn1ccc2c(-c3c[nH]c4ncc(F)cc34)ncnc21 [Compound A1],10 to 100 µM
17,CCOC(=O)[C@H]1C2CCC(CC2)[C@@H]1n1ccc2cnc(-c3c[nH]c4ncc(Cl)cc34)nc21 [Compound B128],10 to 100 µM
18,O=C(O)[C@@H]1C2CCC(CC2)[C@H]1n1ccc2ccc(-c3c[nH]c4ncc(F)cc34)cc21 [Compound B198],10 to 100 µM
19,O=C(O)[C@@H]1C2CCC(CC2)[C@H]1n1cc(-c2ccn[nH]2)c2cnc(-c3c[nH]c4ncc(F)cc34)nc21 [Compound B164],< 1 µM
20,COC(=O)[C@]1(C)CCCC[C@H]1n1cc(C(F)(F)F)c2cnc(-c3c[nH]c4ncc(F)cc34)nc21 [Compound B73],10 to 100 µM
21,CC(C(=O)O)n1cc(-c2c[nH]c3ncc(F)cc23)c2cncnc21 (centres unmarked) [Compound C10],> 100 µM
22,O=C(O)[C@@H]1C2CCC(CC2)[C@H]1n1cc(-c2ccccc2)c2cnc(-c3c[nH]c4ncc(F)cc34)nc21 [Compound B150],1 to 10 µM
23,CC(Cn1cc(-c2c[nH]c3ncc(F)cc23)c2cncnc21)C(=O)N(C)C (centres unmarked) [Compound C6],10 to 100 µM
24,CCOCCOCCOCC(=O)N1CCC[C@H](n2ccc3cnc(-c4c[nH]c5ncc(F)cc45)nc32)C1 [Compound B32],10 to 100 µM

row,Structure (SMILES),IC50
1,CC(C)c1cn([C@@H]2C3CCC(CC3)[C@H]2C(=O)O)c2nc(-c3c[nH]c4ncc(F)cc34)ncc12 [Compound B175],< 1 µM
2,O=C(O)CCn1ccc2c(-c3c[nH]c4ncc(F)cc34)ncnc21 [Compound A5],10 to 100 µM
3,O=C(O)C[C@H](NC(=O)Cn1ccc2c(-c3c[nH]c4ncc(F)cc34)ncnc21)C(=O)O [Compound A14],1 to 10 µM
4,CN(C)C(=O)CCn1ccc2cnc(-c3c[nH]c4ncc(F)cc34)nc21 [Compound B2],10 to 100 µM
5,CCC(C)(C(=O)NCC(F)(F)F)n1ccc2cnc(-c3c[nH]c4ncccc34)nc21 (centres unmarked) [Compound B97],> 100 µM
6,O=C(O)[C@@H]1C2CCC(CC2)[C@H]1n1cc(-c2cn[nH]c2)c2cnc(-c3c[nH]c4ncc(F)cc34)nc21 [Compound B179],< 1 µM
7,CCOC(=O)[C@H]1C2CCC(CC2)[C@@H]1n1ccc2cnc(-c3c[nH]c4ncc(F)cc34)nc21 [Compound B121],10 to 100 µM
8,CC(=O)N1CCCC(Cn2cc(F)c3cnc(-c4c[nH]c5ncc(F)cc45)nc32)C1 (centres unmarked) [Compound B54],1 to 10 µM
9,CN(C)C(=O)N[C@H]1C2CCC(CC2)[C@@H]1n1cc(Cl)c2cnc(-c3c[nH]c4ncc(F)cc34)nc21 [Compound B171],1 to 10 µM
10,CCOC(=O)[C@@H]1C2CCC(CC2)[C@H]1n1cc(-c2cccnc2)c2cnc(-c3c[nH]c4ncc(F)cc34)nc21 [Compound B181],1 to 10 µM
11,CC(=O)N1CCC(Cn2cc(F)c3cnc(-c4c[nH]c5ncc(F)cc45)nc32)CC1 [Compound B58],10 to 100 µM
12,CNC(=O)N1CCCCC1Cn1cc(F)c2cnc(-c3c[nH]c4ncc(F)cc34)nc21 (centres unmarked) [Compound B85],1 to 10 µM
13,CN(C)C(=O)CCN1CCc2cnc(-c3c[nH]c4ncc(F)cc34)nc21 [Compound B12],10 to 100 µM
14,C[C@@]1(C(=O)O)CCCC[C@H]1n1cc(Cl)c2cnc(-c3c[nH]c4ncc(F)cc34)nc21 [Compound B72],< 1 µM
15,CNC(=O)c1cn([C@H]2C3CCC(CC3)[C@@H]2C(=O)O)c2nc(-c3c[nH]c4ncc(Cl)cc34)ncc12 [Compound B197],< 1 µM
16,O=C(O)[C@@H]1CCCC[C@H]1n1cc(F)c2cnc(-c3c[nH]c4ncc(Cl)cc34)nc21 [Compound B87],< 1 µM
17,CCOC(=O)[C@@H]1C2CCC(CC2)[C@H]1n1cc(-c2cn[nH]c2)c2cnc(-c3c[nH]c4ncc(F)cc34)nc21 [Compound B174],10 to 100 µM
18,CCOC(=O)[C@@H]1C2CCC(CC2)[C@H]1n1ccc2ccc(-c3c[nH]c4ncc(F)cc34)nc21 [Compound B199],10 to 100 µM
19,O=C(O)[C@@H]1C2CCC(CC2)[C@H]1n1cc(-c2ccccn2)c2cnc(-c3c[nH]c4ncc(F)cc34)nc21 [Compound B169],< 1 µM
20,N#Cc1cnc2[nH]cc(-c3ncc4c(F)cn([C@@H]5C6CCC(CC6)[C@H]5C(=O)O)c4n3)c2c1 [Compound B214],1 to 10 µM
21,CN(C)C(=O)CN1CCc2cnc(-c3c[nH]c4ncc(F)cc34)nc21 [Compound B6],10 to 100 µM
22,CCOC(=O)[C@@H]1C2CCC(CC2)[C@H]1n1cc(Cl)c2cnc(-c3c[nH]c4ncc(C#N)cc34)nc21 [Compound B219],> 100 µM
23,COC(=O)[C@H](Cc1ccccc1)NC(=O)Cn1ccc2cnc(-c3c[nH]c4ncc(F)cc34)nc21 [Compound B8],> 100 µM
